Assay results as given in PubChem BioAssay AID2060336 (Molecular Pharmacology Branch, DTP, NCI, 2025).

Tested on: 958767-090-R-J1-PDC spheroid growth
Assay: Anticancer human tumor 958767-090-R-J1-PDC patient-derived head and neck squamous carcinoma cell line growth inhibition [IpAb]
Settings: spheroids with HUVEC and MSC; for IC50: curve of first compound; for viability, T/C: stronger effect = lower value
Outline: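 Combinations with ipatasertib or abemaciclib were tested on tumour spheroids holding HUVEC (25%) and MSC (15%) alongside 60% malignant cells. Top concentration was at or near clinical Cmax (10 microM if undefined), descending in half-log steps.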

[1] = second compound 0.01 µM, first compound 0.0316 µM
[2] = second compound 0.01 µM, first compound 0.1 µM
[3] = second compound 0.0316 µM, first compound 0.0316 µM
[4] = second compound 0.0316 µM, first compound 0.1 µM
[5] = second compound 0.1 µM, first compound 0.0316 µM
[6] = second compound 0.1 µM, first compound 0.1 µM
[7] = second compound 0.316 µM, first compound 0.0316 µM
[8] = second compound 0.316 µM, first compound 0.1 µM
[9] = second compound 1 µM, first compound 0.0316 µM
[10] = second compound 1 µM, first compound 0.1 µM
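Note: spheroids exposed to agents for 7 days.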
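Throughout, for viability, T/C: 100% = DMSO vehicle control wells.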

Compound: CC(C)n1nc(-c2ccc3oc(N)nc3c2)c2c(N)ncnc21 + CCN1CCN(Cc2ccc(Nc3ncc(F)c(-c4cc(F)c5nc(C)n(C(C)C)c5c4)n3)nc2)CC1
- IC50 (second compound 0.01 µM): 15.7 nM
- IC50 (second compound 0.0316 µM): 13.5 nM
- IC50 (second compound 0.1 µM): 22.8 nM
- IC50 (second compound 0.316 µM): 24.8 nM
- IC50 (second compound 1 µM): > 100 nM
- viability, T/C (second compound 0.01 µM, first compound 0.000316 µM): 91.4%
- viability, T/C (second compound 0.01 µM, first compound 0.001 µM): 92.4%
- viability, T/C (second compound 0.01 µM, first compound 0.00316 µM): 84.2%
- viability, T/C (second compound 0.01 µM, first compound 0.01 µM): 57.2%
- viability, T/C [1]: 39.2%
- viability, T/C [2]: 33.8%
- viability, T/C (second compound 0.0316 µM, first compound 0.000316 µM): 79.5%
- viability, T/C (second compound 0.0316 µM, first compound 0.001 µM): 80.5%
- viability, T/C (second compound 0.0316 µM, first compound 0.00316 µM): 82.6%
- viability, T/C (second compound 0.0316 µM, first compound 0.01 µM): 54.1%
- viability, T/C [3]: 40.5%
- viability, T/C [4]: 36.7%
- viability, T/C (second compound 0.1 µM, first compound 0.000316 µM): 68.7%
- viability, T/C (second compound 0.1 µM, first compound 0.001 µM): 73.1%
- viability, T/C (second compound 0.1 µM, first compound 0.00316 µM): 70.3%
- viability, T/C (second compound 0.1 µM, first compound 0.01 µM): 61.6%
- viability, T/C [5]: 45.5%
- viability, T/C [6]: 35.4%
- viability, T/C (second compound 0.316 µM, first compound 0.000316 µM): 70.6%
- viability, T/C (second compound 0.316 µM, first compound 0.001 µM): 56.9%
- viability, T/C (second compound 0.316 µM, first compound 0.00316 µM): 66.1%
- viability, T/C (second compound 0.316 µM, first compound 0.01 µM): 54.1%
- viability, T/C [7]: 48.8%
- viability, T/C [8]: 40%
- viability, T/C (second compound 1 µM, first compound 0.000316 µM): 78.3%
- viability, T/C (second compound 1 µM, first compound 0.001 µM): 75.9%
- viability, T/C (second compound 1 µM, first compound 0.00316 µM): 64.8%
- viability, T/C (second compound 1 µM, first compound 0.01 µM): 68.4%
- viability, T/C [9]: 65.5%
- viability, T/C [10]: 50.7%

Compound: C=CCn1c(=O)c2cnc(Nc3ccc(N4CCN(C)CC4)cc3)nc2n1-c1cccc(C(C)(C)O)n1 + CCN1CCN(Cc2ccc(Nc3ncc(F)c(-c4cc(F)c5nc(C)n(C(C)C)c5c4)n3)nc2)CC1
- IC50 (second compound 0.01 µM): 237 nM
- IC50 (second compound 0.0316 µM): 250 nM
- IC50 (second compound 0.1 µM): 338 nM
- IC50 (second compound 0.316 µM): 203 nM
- IC50 (second compound 1 µM): 994 nM
- viability, T/C [1]: 83.8%
- viability, T/C [2]: 69.3%
- viability, T/C (second compound 0.01 µM, first compound 0.316 µM): 43%
- viability, T/C (second compound 0.01 µM, first compound 1 µM): 29%
- viability, T/C (second compound 0.01 µM, first compound 3.16 µM): 26.7%
- viability, T/C (second compound 0.01 µM, first compound 10 µM): 21.3%
- viability, T/C [3]: 79.6%
- viability, T/C [4]: 67.3%
- viability, T/C (second compound 0.0316 µM, first compound 0.316 µM): 42.9%
- viability, T/C (second compound 0.0316 µM, first compound 1 µM): 34.7%
- viability, T/C (second compound 0.0316 µM, first compound 3.16 µM): 25%
- viability, T/C (second compound 0.0316 µM, first compound 10 µM): 21.5%
- viability, T/C [5]: 65.6%
- viability, T/C [6]: 64%
- viability, T/C (second compound 0.1 µM, first compound 0.316 µM): 47.1%
- viability, T/C (second compound 0.1 µM, first compound 1 µM): 40.1%
- viability, T/C (second compound 0.1 µM, first compound 3.16 µM): 31.9%
- viability, T/C (second compound 0.1 µM, first compound 10 µM): 19.7%
- viability, T/C [7]: 65%
- viability, T/C [8]: 47.1%
- viability, T/C (second compound 0.316 µM, first compound 0.316 µM): 44.1%
- viability, T/C (second compound 0.316 µM, first compound 1 µM): 46.7%
- viability, T/C (second compound 0.316 µM, first compound 3.16 µM): 33.2%
- viability, T/C (second compound 0.316 µM, first compound 10 µM): 21.5%
- viability, T/C [9]: 77.3%
- viability, T/C [10]: 68.2%
- viability, T/C (second compound 1 µM, first compound 0.316 µM): 52.3%
- viability, T/C (second compound 1 µM, first compound 1 µM): 55%
- viability, T/C (second compound 1 µM, first compound 3.16 µM): 42.8%
- viability, T/C (second compound 1 µM, first compound 10 µM): 34.3%
